# “And” between values parts separate entries of the source, which are not always exact repeats. Identical values can stand only once.
# Test system: WM3248 melanoma cells, 486 antibodies
# Experiment: Reverse phase protein arrays (RPPA)
# Assay type: cell-based, Human
# Excerpt: Pellets were snap frozen in liquid nitrogen and shipped to MD Anderson Cancer Center core RPPA facility for RPPA analysis (Table S5). Three biological replicates for each sample were generated.
# Nomenclatures on the RPPA heatmaps: name_of_antibody.species_of_antibody.status_of_antibody. V - antibody validated; C - validation of antibody in progress; Q - antibody nonspecific; E – under evaluation; antibodies raised in M - mouse, G - goat, R - rabbit, or T - rat.
# [1] = level 10 normalized to 0, mean of 3
# [2] = level 10 normalized to 0, single replicates
structure (smiles),measurement,setting,value
"CN(C)c1cccc(Nc2cc(-c3ccccc3)nc(C3CCNCC3)n2)c1 [ARN22089, N1,N1-dimethyl-N3-(6-phenyl-2-(piperidin-4-yl)pyrimidin-4-yl)benzene-1,3-diamine]",XIAP.R.C Norm_10 Average,[1],0.978
same,XPA.M.V Norm_10 Average,[1],0.978
same,XPF.R.C Norm_10 Average,[1],0.977
same,YAP.R.C Norm_10 Average,[1],1.029
same,YB1_pS102.R.V Norm_10 Average,[1],0.937
same,YES1.R.V Norm_10 Average,[1],1.017
same,YTHDF3.R.C Norm_10 Average,[1],1.101
same,ZAP.70.R.V Norm_10 Average,[1],0.957
same,ZEB1.R.V Norm_10 Average,[1],0.964
same,TSC1.R.C Norm_10_1 to Norm_10_3,[2],0.905 and 0.842
same,TTF1.R.V Norm_10_1 to Norm_10_3,[2],1.022 and 0.970 and 1.241
same,TUFM.R.V Norm_10_1 to Norm_10_3,[2],0.423 and 1.882 and 1.360
same,Tuberin.R.V Norm_10_1 to Norm_10_3,[2],1.169 and 0.526 and 0.811
same,Tuberin_pT1462.R.V Norm_10_1 to Norm_10_3,[2],1.492 and 0.717 and 0.984
same,Twist.M.C Norm_10_1 to Norm_10_3,[2],1.114 and 1.030
same,Tyro3.R.V Norm_10_1 to Norm_10_3,[2],1.080 and 1.777 and 1.302
same,U.Histone.H2B.R.C Norm_10_1 to Norm_10_3,[2],0.871 and 0.726
same,UBAC1.R.V Norm_10_1 to Norm_10_3,[2],0.932 and 1.030 and 1.078
same,UBQLN4.M.C Norm_10_1 to Norm_10_3,[2],0.984 and 0.918 and 0.980
same,UGT1A.M.V Norm_10_1 to Norm_10_3,[2],1.017 and 1.128 and 1.006
same,ULK1_pS757.R.C Norm_10_1 to Norm_10_3,[2],1.125 and 0.823 and 0.899
same,UQCRC2.M.C Norm_10_1 to Norm_10_3,[2],0.945 and 1.144 and 1.246
same,UVRAG.R.C Norm_10_1 to Norm_10_3,[2],1.050 and 0.851 and 0.904
same,VASP.R.V Norm_10_1 to Norm_10_3,[2],0.815 and 0.894
same,VAV1.R.C Norm_10_1 to Norm_10_3,[2],1.035 and 0.844 and 0.890
same,VEGFR.2.R.V Norm_10_1 to Norm_10_3,[2],0.901 and 0.958 and 1.012
same,VEGFR.2_pY1175.R.C Norm_10_1 to Norm_10_3,[2],0.930 and 0.993
same,VHL.EPPK1.M.C Norm_10_1 to Norm_10_3,[2],0.587 and 1.522 and 0.982
same,VHL.R.C Norm_10_1 to Norm_10_3,[2],0.900 and 0.987
same,Vinculin.M.V Norm_10_1 to Norm_10_3,[2],0.829 and 1.085 and 1.051
same,WIPI1.R.C Norm_10_1 to Norm_10_3,[2],1.210 and 1.510 and 1.234
same,WIPI2.R.C Norm_10_1 to Norm_10_3,[2],1.209 and 0.707 and 0.915
same,WTAP.R.V Norm_10_1 to Norm_10_3,[2],0.900 and 1.764 and 1.008
same,Wee1.R.C Norm_10_1 to Norm_10_3,[2],0.851 and 0.833 and 1.061
same,Wee1_pS642.R.C Norm_10_1 to Norm_10_3,[2],0.901 and 0.776 and 1.023
same,XBP.1.G.C Norm_10_1 to Norm_10_3,[2],0.989 and 1.187 and 1.403
same,XIAP.R.C Norm_10_1 to Norm_10_3,[2],1.022 and 1.000
same,XPA.M.V Norm_10_1 to Norm_10_3,[2],1.064
same,XPF.R.C Norm_10_1 to Norm_10_3,[2],0.948 and 0.944
same,XRCC1.R.C Norm_10_1 to Norm_10_3,[2],0.931 and 1.213
same,YAP.R.C Norm_10_1 to Norm_10_3,[2],0.955 and 1.252 and 0.879
same,YAP_pS127.R.V Norm_10_1 to Norm_10_3,[2],0.913 and 1.139 and 0.796
same,YB1_pS102.R.V Norm_10_1 to Norm_10_3,[2],0.840 and 1.032
same,YES1.R.V Norm_10_1 to Norm_10_3,[2],1.000 and 0.982
same,YTHDF2.R.V Norm_10_1 to Norm_10_3,[2],1.206 and 1.258
same,YTHDF3.R.C Norm_10_1 to Norm_10_3,[2],1.009 and 1.186 and 1.108
same,ZAP.70.R.V Norm_10_1 to Norm_10_3,[2],1.012 and 0.977 and 0.883
same,ZEB1.R.V Norm_10_1 to Norm_10_3,[2],0.854 and 1.114 and 0.924
same,HLA.DQA1.R.V Norm_10 Average,level 10 vs 0,0.993
same,HLA.DR.DP.DQ.DX.R.C Norm_10 Average,level 10 vs 0,1.057
same,HMHA1.R.V Norm_10 Average,level 10 vs 0,0.922
same,HNRNPK.R.V Norm_10 Average,level 10 vs 0,1.030
same,HSP27.M.C Norm_10 Average,level 10 vs 0,0.958
same,HSP27_pS82.R.V Norm_10 Average,level 10 vs 0,0.916
same,HSP60.R.V Norm_10 Average,level 10 vs 0,0.926
same,HSP70.R.C Norm_10 Average,level 10 vs 0,0.973
same,Hexokinase.I.R.C Norm_10 Average,level 10 vs 0,1.225
same,Hexokinase.II.R.V Norm_10 Average,level 10 vs 0,1.128
same,Hif.1αR.C Norm_10 Average,level 10 vs 0,1.156
same,Histone.H3.R.V Norm_10 Average,level 10 vs 0,0.957
same,IDO.R.C Norm_10 Average,level 10 vs 0,0.957
same,IGF1R_pY1135_Y1136.R.V Norm_10 Average,level 10 vs 0,0.918
same,IGFBP2.R.V Norm_10 Average,level 10 vs 0,0.935
same,IGFBP3.M.V Norm_10 Average,level 10 vs 0,0.971
same,IGFRb.R.C Norm_10 Average,level 10 vs 0,0.953
same,IL.6.R.C Norm_10 Average,level 10 vs 0,0.924
same,IMP3.R.C Norm_10 Average,level 10 vs 0,0.953
same,INPP4b.R.C Norm_10 Average,level 10 vs 0,1.029
same,IR.b.R.C Norm_10 Average,level 10 vs 0,0.981
same,IRF.1.R.V Norm_10 Average,level 10 vs 0,0.874
same,IRF.3.R.V Norm_10 Average,level 10 vs 0,0.967
same,IRS1.R.V Norm_10 Average,level 10 vs 0,0.929
same,IRS2.R.C Norm_10 Average,level 10 vs 0,1.033
same,JAB1.M.C Norm_10 Average,level 10 vs 0,1.009
same,JNK2.R.V Norm_10 Average,level 10 vs 0,2.307
same,JNK_pT183_Y185.R.C Norm_10 Average,level 10 vs 0,0.955
same,Jagged1.R.V Norm_10 Average,level 10 vs 0,0.936
same,Jak2.R.V Norm_10 Average,level 10 vs 0,0.959
same,KAP1.R.V Norm_10 Average,level 10 vs 0,1.103
same,KEAP1.R.V Norm_10 Average,level 10 vs 0,1.017
same,LAD1.R.V Norm_10 Average,level 10 vs 0,0.908
same,LC3A.B.R.C Norm_10 Average,level 10 vs 0,1.064
